Source: PubChem BioAssay AID248 (DTP/NCI, 2004)
“And” between values parts separate entries of the source, which are not always exact repeats. Identical values can stand only once. Inconclusive results and toxic doses are left out. Rule as the data show it: active = T/C of 150% or more; inactive = T/C below 125%.

System: L1210 leukemia ip in BDF1 mice, survival T/C
Experiment: NCI In Vivo Anticancer Drug Screen. Data for tumor model L1210 Leukemia (intraperitoneal) in B6D2F1 (BDF1) mice
Conditions: endpoint: mean survival time, higher = longer survival
How it was run: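 Transplantable tumor model; survival measured in treated vs vehicle control mice. Value = treated/control.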

[1] = dose: 100.0 mg/kg/injection, schedule: Q01DX009 (ip), vehicle: Klucel (hydroxypropylcellulose) (HPC)
[2] = dose: 100.0 mg/kg/injection, schedule: Q04DX002 (ip), vehicle: Klucel (hydroxypropylcellulose) (HPC)
[3] = dose: 200.0 mg/kg/injection, schedule: Q01DX009 (ip), vehicle: Klucel (hydroxypropylcellulose) (HPC)
[4] = dose: 200.0 mg/kg/injection, schedule: Q04DX002 (ip), vehicle: Klucel (hydroxypropylcellulose) (HPC)
[5] = dose: 400.0 mg/kg/injection, schedule: Q04DX002 (ip), vehicle: Klucel (hydroxypropylcellulose) (HPC)
[6] = dose: 100.0 mg/kg/injection, schedule: Q01DX001 (ip), vehicle: saline
[7] = dose: 400.0 mg/kg/injection, schedule: Q01DX001 (ip), vehicle: saline
[8] = dose: 100.0 mg/kg/injection, schedule: Q04DX003 (ip), vehicle: Klucel (hydroxypropylcellulose) (HPC)
[9] = dose: 200.0 mg/kg/injection, schedule: Q04DX003 (ip), vehicle: Klucel (hydroxypropylcellulose) (HPC)
[10] = dose: 400.0 mg/kg/injection, schedule: Q04DX003 (ip), vehicle: Klucel (hydroxypropylcellulose) (HPC)
[11] = dose: 50.0 mg/kg/injection, schedule: Q01DX001 (ip), vehicle: saline
[12] = dose: 200.0 mg/kg/injection, schedule: Q01DX001 (ip), vehicle: saline

Measured: T/C

O=C(O)C(Cc1ccc(O)cc1)N(S(=O)(=O)Cc1ccccc1)S(=O)(=O)Cc1ccccc1 (stereo not given)
inactive: dose: 100.0 mg/kg/injection, schedule: Q01DX001 (ip), vehicle: other 88 % of control | dose: 100.0 mg/kg/injection, schedule: Q04DX003 (ip), vehicle: other 95 % of control | dose: 200.0 mg/kg/injection, schedule: Q01DX001 (ip), vehicle: other 97 % of control | dose: 200.0 mg/kg/injection, schedule: Q04DX003 (ip), vehicle: other 98 % of control | dose: 400.0 mg/kg/injection, schedule: Q01DX001 (ip), vehicle: other 108 % of control | dose: 400.0 mg/kg/injection, schedule: Q04DX003 (ip), vehicle: other 88 % of control

Nc1ccccc1C(=O)N/N=C/c1ccc(Cl)cc1Cl
inactive: [1] 89 % of control | [2] 95 % of control | [3] 98 % of control | [4] 102 % of control | [5] 104 % of control

N#Cc1nc(/C=C\c2ccc3c(c2)OCO3)cnc1N
inactive: dose: 100.0 mg/kg/injection, schedule: Q01DX001 (ip), vehicle: Klucel (hydroxypropylcellulose) (HPC) 106 % of control | dose: 200.0 mg/kg/injection, schedule: Q01DX001 (ip), vehicle: Klucel (hydroxypropylcellulose) (HPC) 95 % of control | dose: 400.0 mg/kg/injection, schedule: Q01DX001 (ip), vehicle: Klucel (hydroxypropylcellulose) (HPC) 89 % of control

CCC(O)(CC)C(C)C
inactive: dose: 90.0 mg/kg/injection, schedule: Q01DX001 (ip), vehicle: saline 97 % of control | [6] 102 % of control | dose: 130.0 mg/kg/injection, schedule: Q01DX001 (ip), vehicle: saline 92 % of control | dose: 300.0 mg/kg/injection, schedule: Q01DX001 (ip), vehicle: saline 96 % of control | [7] 96 % of control

N=c1nc(N)c([N+](=O)[O-])c(N)n1O
inactive: dose: 100.0 mg/kg/injection, schedule: Q01DX001 (ip), vehicle: carboxymethylcellulose (CMC) 100 % of control | dose: 200.0 mg/kg/injection, schedule: Q01DX001 (ip), vehicle: carboxymethylcellulose (CMC) 97 % of control | dose: 400.0 mg/kg/injection, schedule: Q01DX001 (ip), vehicle: carboxymethylcellulose (CMC) 100 % of control

CN(C)c1ccc(/C=C(/NC(=O)c2ccccc2)C(N)=O)cc1
inactive: [8] 94 % of control | [9] 96 % of control | [10] 94 % of control

CC(=O)Nc1ccc(OC(C)(C)C)cc1
inactive: [11] 101 % of control | [6] 106 % of control | [12] 97 % of control | [7] 95 % of control

Cc1ccc(C)c(NS(C)(=O)=O)c1
inactive: [11] 96 % of control | [6] 91 % of control | [12] 102 % of control | [7] 102 % of control

CCC1C(=O)NC(=O)C1(C)c1ccccc1 (stereo not given)
inactive: dose: 25.0 mg/kg/injection, schedule: Q01DX009 (ip), vehicle: saline 115 % of control | dose: 25.0 mg/kg/injection, schedule: Q04DX003 (ip), vehicle: Klucel (hydroxypropylcellulose) (HPC) 120 % of control | dose: 50.0 mg/kg/injection, schedule: Q01DX009 (ip), vehicle: saline 103 % of control | dose: 50.0 mg/kg/injection, schedule: Q04DX003 (ip), vehicle: Klucel (hydroxypropylcellulose) (HPC) 101 % of control | dose: 100.0 mg/kg/injection, schedule: Q01DX009 (ip), vehicle: saline 98 % of control | [8] 101 % of control | dose: 200.0 mg/kg/injection, schedule: Q01DX009 (ip), vehicle: saline 110 % of control | [9] 93 % of control | dose: 400.0 mg/kg/injection, schedule: Q01DX009 (ip), vehicle: saline 86 % of control | [10] 104 % of control

CC(CCc1cccc2ccccc12)C(=O)O (stereo not given)
inactive: [8] 103 % of control | [9] 100 % of control | [10] 105 % of control

NC(=O)c1cc(Cl)ccn1
inactive: dose: 100.0 mg/kg/injection, schedule: Q04DX002 (ip), vehicle: saline with Tween-80 101 % of control | dose: 200.0 mg/kg/injection, schedule: Q04DX002 (ip), vehicle: saline with Tween-80 99 % of control

NC(CCl)=NCC1CCCCCCC1
inactive: dose: 25.0 mg/kg/injection, schedule: Q01DX009 (ip), vehicle: Klucel (hydroxypropylcellulose) (HPC) 103 % of control | dose: 25.0 mg/kg/injection, schedule: Q04DX002 (ip), vehicle: Klucel (hydroxypropylcellulose) (HPC) 100 % of control | dose: 50.0 mg/kg/injection, schedule: Q04DX002 (ip), vehicle: Klucel (hydroxypropylcellulose) (HPC) 107 % of control | [2] 101 % of control and 89 % of control

COc1ccccc1C(C#N)NCCCNC(C#N)c1ccccc1OC (stereo not given)
inactive: dose: 10.0 mg/kg/injection, schedule: Q01DX001 (ip), vehicle: saline 89 % of control | dose: 20.0 mg/kg/injection, schedule: Q01DX001 (ip), vehicle: saline 110 % of control

O=[N+]([O-])c1c[c]([Hg][Cl])c(O)[c]([Hg][Cl])c1
inactive: dose: 3.13 mg/kg/injection, schedule: Q01DX009 (ip), vehicle: saline with Tween-80 88 % of control | dose: 3.13 mg/kg/injection, schedule: Q04DX002 (ip), vehicle: saline with Tween-80 107 % of control | dose: 3.13 mg/kg/injection, schedule: Q04DX003 (ip), vehicle: saline with Tween-80 88 % of control | dose: 6.25 mg/kg/injection, schedule: Q01DX009 (ip), vehicle: saline with Tween-80 86 % of control | dose: 6.25 mg/kg/injection, schedule: Q04DX002 (ip), vehicle: saline with Tween-80 96 % of control | dose: 6.25 mg/kg/injection, schedule: Q04DX003 (ip), vehicle: saline with Tween-80 97 % of control | dose: 12.5 mg/kg/injection, schedule: Q01DX009 (ip), vehicle: saline with Tween-80 91 % of control | dose: 12.5 mg/kg/injection, schedule: Q04DX002 (ip), vehicle: saline with Tween-80 93 % of control | dose: 12.5 mg/kg/injection, schedule: Q04DX003 (ip), vehicle: saline with Tween-80 87 % of control

COc1ccc(C)cc1NC(=O)Nc1ccc(SC)cc1
inactive: [1] 87 % of control | [3] 95 % of control | dose: 400.0 mg/kg/injection, schedule: Q01DX009 (ip), vehicle: Klucel (hydroxypropylcellulose) (HPC) 90 % of control

S=C(Nc1ccccc1)N1CCN2CCCCC2C1 (stereo not given)
inactive: dose: 75.0 mg/kg/injection, schedule: Q01DX001 (ip), vehicle: acetone 100 % of control | dose: 150.0 mg/kg/injection, schedule: Q01DX001 (ip), vehicle: acetone 107 % of control | dose: 300.0 mg/kg/injection, schedule: Q01DX001 (ip), vehicle: acetone 92 % of control

Nc1nc(C=O)c(-c2cccc3ccccc23)c(=O)[nH]1
inactive: dose: 100.0 mg/kg/injection, schedule: Q01DX009 (ip), vehicle: saline with Tween-80 112 % of control | dose: 200.0 mg/kg/injection, schedule: Q01DX009 (ip), vehicle: saline with Tween-80 94 % of control

c1ccc(-c2c3ccccc3c(-c3ccccc3)c3cc4ccccc4cc23)cc1
inactive: [2] 95 % of control | [4] 98 % of control | [5] 92 % of control

CC(CCc1ccccc1)C12CCC(CC1O)C2 (stereo not given)
inactive: [2] 96 % of control | [4] 110 % of control | [5] 96 % of control

CC(=O)C(CCS(C)(=O)=O)c1ccccc1 (stereo not given)
inactive: [8] 103 % of control | [9] 97 % of control | [10] 105 % of control
